Reference: patent publication US20240124456A1, “AZA-ERGOLINE DERIVATIVE AND PREPARATION METHOD THEREFOR AND APPLICATION THEREOF” (SHANGHAITECH UNIVERSITY, priority 2021, published 2024)

Columns and labels:
dopamine D2 receptors = dopamine D2 receptors (Homo sapiens (Human), UniProt P14416); assay: Radioligand competition binding, affinity for dopamine D2 receptors ([3H]-Methylspiperone); details: [3H]-Methylspiperone (0.3-0.5 nM), HEK-293T membranes; for Ki: I-1 to 19 n=3, I-20 to 27 single determination; for Affinity pKi ± SEM: n=3
Chain of dopamine D2 receptors (P14416 whole entry): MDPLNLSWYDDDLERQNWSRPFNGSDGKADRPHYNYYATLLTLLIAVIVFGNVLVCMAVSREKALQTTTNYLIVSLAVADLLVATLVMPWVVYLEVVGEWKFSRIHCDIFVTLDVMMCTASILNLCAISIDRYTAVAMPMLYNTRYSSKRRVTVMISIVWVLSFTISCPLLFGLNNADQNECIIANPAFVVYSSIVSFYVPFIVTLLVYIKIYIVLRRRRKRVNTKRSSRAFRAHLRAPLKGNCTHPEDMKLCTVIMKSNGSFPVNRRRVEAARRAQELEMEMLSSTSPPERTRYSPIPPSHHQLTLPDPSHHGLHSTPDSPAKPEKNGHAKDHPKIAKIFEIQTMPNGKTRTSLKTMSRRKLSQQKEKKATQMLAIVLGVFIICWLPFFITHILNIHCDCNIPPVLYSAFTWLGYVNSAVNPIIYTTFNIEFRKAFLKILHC

5-HT2A receptor = 5-HT2A receptor (Homo sapiens (Human), UniProt P28223); assay: Radioligand competition binding, affinity for 5-HT2A receptor ([3H]-ketanserin); details: for binding selectivity, dopamine D2 receptor versus 5-HT2A receptor: Table 3 compared with Table 1; for Ki: [3H]-ketanserin, HEK-293T membranes
Chain of 5-HT2A receptor (P28223 whole entry): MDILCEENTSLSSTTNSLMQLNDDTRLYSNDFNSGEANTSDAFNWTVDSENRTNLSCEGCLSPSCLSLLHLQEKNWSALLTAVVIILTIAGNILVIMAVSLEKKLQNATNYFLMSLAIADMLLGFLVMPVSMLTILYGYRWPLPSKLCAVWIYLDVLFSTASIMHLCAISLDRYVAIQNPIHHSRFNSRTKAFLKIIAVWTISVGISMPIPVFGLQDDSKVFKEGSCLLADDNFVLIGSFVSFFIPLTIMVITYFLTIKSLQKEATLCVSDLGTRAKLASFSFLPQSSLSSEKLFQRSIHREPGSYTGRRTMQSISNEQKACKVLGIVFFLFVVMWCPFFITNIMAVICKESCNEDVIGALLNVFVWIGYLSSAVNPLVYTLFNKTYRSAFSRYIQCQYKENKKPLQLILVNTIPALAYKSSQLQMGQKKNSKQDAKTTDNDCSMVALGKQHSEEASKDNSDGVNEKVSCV
Protocol: The affinity of the compounds of the present invention for the 5-HT2A receptors was determined by the method of radioligand competition experiment. In the first step, a cell membrane component containing specific 5-HT2A receptor was prepared. A 10 cm dish was used for transfection with 10 ng of the 5-HT2A receptor and 40 μL of PEI. […] A vacuum pump was used to suck off the culture medium, 3 mL of lysis buffer was added to each well, and the cells were placed in a 4° C. freezer for 10 minutes. After the cells were detached, the cells were transferred to a 15 mL centrifuge tube and centrifuged at 1500 rpm for 5 minutes at 4° C., and the supernatant was discarded. The cell pellet was transferred to a tissue homogenizer, and 3 mL of lysis buffer was added and fully ground until the cells were broken. Then, cell suspension was equally divided into several EP tubes, centrifuged at 4° C. and 12000 rpm for 5 min, and the supernatant was discarded. The precipitate was the cell membrane component containing the 5-HT2A receptor. […] First, a standard binding buffer was added to the cell membrane component containing the 5-HT2A receptor, and the cell membrane was disrupted and resuspended with an electric tissue homogenizer. 30 μL of membrane protein suspension was added to each well of a 96-well plate. Then, 30 μL of different drugs were added to the 96-well plate from left to right to ensure that the final drug concentrations were 10^−5 M, 10^−6 M, 10^−7 M, 10^−8 M, 10^−9 M and 0 M, with two replicates per treatment. Next, 30 μL [^3H]-ketanserin was added to each well of the 96-well plate. The plate was incubated for 2 hours at room temperature in the dark. Detection. The machine reading value reflected the amount of [^3H]-ketanserin bound on the membrane, and after further data processing, the affinity Ki value of different compounds for 5-HT2A receptor was obtained.

SMILES	Ki (dopamine D2 receptors)	binding selectivity, dopamine D2 receptor versus 5-HT2A receptor (5-HT2A receptor)	Ki (5-HT2A receptor)	Affinity pKi ± SEM (dopamine D2 receptors)	affinity for 5-HT2A receptor (in words) (5-HT2A receptor)
O=c1ccc2ccc(OCCCCN3CCN4c5cccc6[nH]cc(c56)CC4C3)cc2[nH]1 (racemic) [Compound I-2, 7-(4(4,6,6a,7,9,10-hexahydro-8H-pyrazino[1,2-a]pyrrolo[4,3,2-de]quinolin-8-yl)butoxy)quinolin-2(1H)-one]	9.03 nM	more than 100 times	907 nM		
CN(C)C(=O)N[C@H]1CC[C@H](CCN2CCN3c4cccc5[nH]cc(c45)C[C@@H]3C2)CC1 [(+)-I-10]	1140 nM		2480 nM	(5.95 ± 0.17)	very weak affinity
CN(C)C(=O)N[C@H]1CC[C@H](CCN2CCN3c4cccc5[nH]cc(c45)C[C@H]3C2)CC1 [(−)-I-10]	22.4 nM	more than 100 times	2630 nM	(7.65 ± 0.08)	very weak affinity
O=C1CCc2ccc(OCCCCN3CCN4c5cccc6[nH]cc(c56)CC4C3)cc2N1 (centres unmarked) [Compound I-1, 7-(4(4,6,6a,7,9,10-hexahydro-8H-pyrazino[1,2-a]pyrrolo[4,3,2-de]quinolin-8-yl)butoxy)-3,4-dihydroquinolin-2(1H)-one]	33.6 nM	more than 100 times	3640 nM	(7.47 ± 0.16)	very weak affinity
